Each block holds one molecule with its values, some of them ahead of it.
Legend:
[1] = test system: lambsquarter (Chenopodium album); test: Postemergence herbicidal activity; assay type: in vivo; settings: post-emergent, 140 g ai/ha, after 14 days; for pest or weed control at 140 g/ha: Chenopodium album, post-emergence, 336 h, read-out: % Control CHEAL
Procedure, shortened: (§1)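 Compounds were applied postemergence by track sprayer delivering 187 L/ha, using a mixed organic/aqueous carrier containing crop oil concentrate and surfactant; solvent-blank sprays served as controls. Test plants were at the first to second true leaf stage after 7-21 days' greenhouse growth, were sub-irrigated after treatment, and were evaluated by probit analysis.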

[2] = test system: redroot pigweed (Amaranthus retroflexus); test: Postemergence herbicidal activity; assay type: in vivo; settings: post-emergent, 140 g ai/ha, after 14 days; for pest or weed control at 140 g/ha: Amaranthus retroflexus, post-emergence, 336 h, read-out: % Control AMARE
Procedure, shortened: as §1

[3] = test system: velvetleaf (Abutilon theophrasti); test: Postemergence herbicidal activity; assay type: in vivo; settings: post-emergent, 140 g ai/ha, after 14 days; for pest or weed control at 140 g/ha: Abutilon theophrasti, post-emergence, 336 h, read-out: % Control ABUTH
Procedure, shortened: as §1

Galium aparine = test: Postemergence herbicidal activity in cereal crops; assay type: in vivo; settings: post-emergent, after 20-22 days; for pest or weed control at 17.5 g/ha: 17.5 g ai/ha; for pest or weed control at 35 g/ha: 35 g ai/ha
Protocol: (§2) When required to ensure good germination and healthy plants, a fungicide treatment and/or other chemical or physical treatment was applied. The plants were grown for 7-36 days in a greenhouse with an approximate 14 hour photoperiod which was maintained at about 18° C. during the day and 17° C. during the night. Nutrients and water were added on a regular basis and supplemental lighting was provided with overhead metal halide 1000-Watt lamps as necessary. The plants were employed for testing when they reached the second or third true leaf stage. […] The concentrated stock solutions obtained were diluted with 16 mL of an aqueous mixture containing acetone, water, isopropyl alcohol, DMSO, Agri-dex crop oil concentrate, and Triton® X-77 surfactant in a 64.7:26.0:6.7:2.0:0.7:0.01 v/v ratio to obtain spray solutions containing the highest application rates. […] Compound requirements are based upon a 12 mL application volume at a rate of 187 L/ha. Formulated compounds were applied to the plant material with an overhead Mandel track sprayer equipped with a […] nozzles calibrated to deliver 187 L/ha over an application area of 0.503 square meters at a spray height of 18 inches (43 cm) above average plant canopy height. Control plants were sprayed in the same manner with the blank. The treated plants and control plants were placed in a greenhouse as described above and watered by sub-irrigation to prevent wash-off of the test compounds.

Lamium purpureum = test: Postemergence herbicidal activity in cereal crops; assay type: in vivo; settings: post-emergent, after 20-22 days; for pest or weed control at 17.5 g/ha: 17.5 g ai/ha; for pest or weed control at 35 g/ha: 35 g ai/ha
Protocol: as §2

Papaver rhoeas = test: Postemergence herbicidal activity in cereal crops; assay type: in vivo; settings: post-emergent, after 20-22 days; for pest or weed control at 17.5 g/ha: 17.5 g ai/ha; for pest or weed control at 35 g/ha: 35 g ai/ha
Protocol: as §2

Veronica persica = test: Postemergence herbicidal activity in cereal crops; assay type: in vivo; settings: post-emergent, after 20-22 days; for pest or weed control at 17.5 g/ha: 17.5 g ai/ha; for pest or weed control at 35 g/ha: 35 g ai/ha
Protocol: as §2

barley (Hordeum vulare) = test: Postemergence herbicidal activity in cereal crops; assay type: in vivo; settings: crop, post-emergent, after 20-22 days; for pest or weed control at 17.5 g/ha: 17.5 g ai/ha; for pest or weed control at 35 g/ha: 35 g ai/ha
Protocol: as §2

[4] = test system: wheat (Triticum aestivum); test: Postemergence herbicidal activity in cereal crops; assay type: in vivo; settings: crop, post-emergent, after 20-22 days; for plant injury at 17.5 g/ha: 17.5 g ai/ha; for plant injury at 35 g/ha: 35 g ai/ha
Protocol: as §2

[5] = test system: lambsquarter (Chenopodium album); test: Preemergence herbicidal activity; assay type: in vivo; settings: Chenopodium album, pre-emergence, 480 h; pre-emergent, 140 g ai/ha, after 20-22 days; read-out: % Control CHEAL
Description: (§3) Seeds of the desired test plant species were planted in a soil matrix prepared by mixing a loam soil (43 percent silt, 19 percent clay, and 38 percent sand, with a pH of about 8.1 and an organic matter content of about 1.5 percent) and sand in a 70 to 30 ratio. The soil matrix was contained in plastic pots with a surface area of 113 square centimeters. When required to ensure good germination and healthy plants, a fungicide treatment and/or other chemical or physical treatment was applied. […] Compound requirements are based upon a 12 mL application volume at a rate of 187 L/ha. Formulated compounds were applied to the plant material with an overhead Mandel track sprayer equipped with a […] nozzles calibrated to deliver 187 L/ha over an application area of 0.503 square meters at a spray height of 18 inches (43 cm) above the soil surface. Control plants were sprayed in the same manner with the solvent blank. The treated pots and control pots were placed in a greenhouse maintained with an approximate 15 hour photoperiod and temperatures of about 23-29° C. during the day and 22-28° C. during the night. Nutrients and water were added on a regular basis and supplemental lighting was provided with overhead metal halide 1000-watt lamps as necessary. The water was added by top-irrigation.

[6] = test system: redroot pigweed (Amaranthus retroflexus); test: Preemergence herbicidal activity; assay type: in vivo; settings: Amaranthus retroflexus, pre-emergence, 480 h; pre-emergent, 140 g ai/ha, after 20-22 days; read-out: % Control AMARE
Description: as §3

[7] = test system: velvetleaf (Abutilon theophrasti); test: Preemergence herbicidal activity; assay type: in vivo; settings: Abutilon theophrasti, pre-emergence, 480 h; pre-emergent, 140 g ai/ha, after 20-22 days; read-out: % Control ABUTH
Description: as §3

[8] = Galium aparine, post-emergence, 480 h, read-out: % Control GALAP
[9] = Lamium purpureum, post-emergence, 480 h, read-out: % Control LAMPU
[10] = Papaver rhoeas, post-emergence, 480 h, read-out: % Control PAPRH
[11] = Veronica persica, post-emergence, 480 h, read-out: % Control VERPE
[12] = Hordeum, post-emergence, 480 h, read-out: % Control HORVS
[13] = Triticum aestivum, post-emergence, 480 h, read-out: % Control TRZAS

SMILES: CCCCOCCOC(=O)c1nc(-c2ccc(Cl)c(OC)c2F)cc(N)c1Cl [Compound 87, 4-Amino-3-chloro-6-(4-chloro-2-fluoro-3-methoxyphenyl)pyridine-2-carboxylic acid, 2-butoxy-ethyl ester]
pest or weed control at 140 g/ha [1]: 100% | pest or weed control at 140 g/ha [2]: 100% | pest or weed control at 140 g/ha [3]: 100% | pest or weed control at 17.5 g/ha (Galium aparine; [8]): 100% | pest or weed control at 17.5 g/ha (Lamium purpureum; [9]): 100% | pest or weed control at 17.5 g/ha (Papaver rhoeas; [10]): 100% | pest or weed control at 17.5 g/ha (Veronica persica; [11]): 50% | pest or weed control at 17.5 g/ha (barley (Hordeum vulare); [12]): 0% | plant injury at 17.5 g/ha [4, 13]: 0%

melting point: 128 to 130 °C
SMILES: COC(=O)c1nc(-c2cc(OC)c(F)cc2F)cc(N)c1Cl [Compound 73, 4-Amino-3-chloro-6-(2,4-difluoro-5-methoxyphenyl)pyridine-2-carboxylic acid, methyl ester]
pest or weed control at 140 g/ha [1]: 100% | pest or weed control at 140 g/ha [2]: 100% | pest or weed control at 140 g/ha [3]: 90% | pest or weed control at 70 g/ha (Galium aparine; Galium aparine, post-emergence, 480 h, 70 g ai/ha, read-out: % Control GALAP): 95% | pest or weed control at 70 g/ha (Lamium purpureum; Lamium purpureum, post-emergence, 480 h, 70 g ai/ha, read-out: % Control LAMPU): 99% | pest or weed control at 70 g/ha (Papaver rhoeas; Papaver rhoeas, post-emergence, 480 h, 70 g ai/ha, read-out: % Control PAPRH): 95% | pest or weed control at 70 g/ha (Veronica persica; Veronica persica, post-emergence, 480 h, 70 g ai/ha, read-out: % Control VERPE): 60% | pest or weed control at 70 g/ha (barley (Hordeum vulare); Hordeum, post-emergence, 480 h, 70 g ai/ha, read-out: % Control HORVS): 0% | plant injury at 70 g/ha ([4]; Triticum aestivum, post-emergence, 480 h, 70 g ai/ha, read-out: % Control TRZAS): 0%

SMILES: COC(=O)c1nc(-c2c(F)cc(F)c(OC)c2F)cc(N)c1Cl [Compound 56, 4-Amino-3-chloro-6-(2,4,6-trifluoro-3-methyoxyphenyl)pyridine-2-carboxylic acid, methyl ester]
% Control CHEAL [1]: 100% | % Control AMARE [2]: 100% | % Control ABUTH [3]: 100% | % Control GALAP (Galium aparine; 70 g ai/ha): 100% | % Control LAMPU (Lamium purpureum; 70 g ai/ha): 99% | % Control PAPRH (Papaver rhoeas; 70 g ai/ha): 100% | % Control VERPE (Veronica persica; 70 g ai/ha): 95% | % Control HORVS (barley (Hordeum vulare); 70 g ai/ha): 10% | % Control TRZAS ([4]; 70 g ai/ha): 0%

SMILES: COC(=O)c1nc(-c2c(F)cc(C)c(OC)c2F)cc(N)c1Cl [Compound 51, 4-Amino-3-chloro-6-(2,6-difluoro-3-methoxy-4-methylphenyl)pyridine-2-carboxylic acid, methyl ester]
pest or weed control at 140 g/ha [1]: 100% | pest or weed control at 140 g/ha [2]: 100% | pest or weed control at 140 g/ha [3]: 100% | pest or weed control at 35 g/ha (Galium aparine; [8]): 95% | pest or weed control at 35 g/ha (Lamium purpureum; [9]): 70% | pest or weed control at 35 g/ha (Papaver rhoeas; [10]): 100% | pest or weed control at 35 g/ha (Veronica persica; [11]): 30% | pest or weed control at 35 g/ha (barley (Hordeum vulare); [12]): 0% | plant injury at 35 g/ha [4, 13]: 0%

SMILES: COC(=O)c1nc(-c2ccc(C)c(OC)c2F)cc(N)c1Cl [Compound 36, 4-amino-3-chloro-6-(2-fluoro-3-methoxy-4-methylphenyl) pyridine-2-carboxylic acid, methyl ester]
% Control CHEAL [1]: 100% | % Control AMARE [2]: 100% | % Control ABUTH [3]: 100% | % Control GALAP (Galium aparine; 70 g ai/ha): 95% | % Control LAMPU (Lamium purpureum; 70 g ai/ha): 99% | % Control PAPRH (Papaver rhoeas; 70 g ai/ha): 99% | % Control VERPE (Veronica persica; 70 g ai/ha): 50% | % Control HORVS (barley (Hordeum vulare); 70 g ai/ha): 0% | % Control TRZAS ([4]; 70 g ai/ha): 5%

melting point: 187 to 188 °C (dec.)
SMILES: COCc1c(Cl)ccc(-c2cc(N)c(Cl)c(C(=O)O)n2)c1F [Compound 105, 4-Amino-3-chloro-6-(4-chloro-2-fluoro-3-methoxymethylphenyl)pyridine-2-carboxylic acid]
pest or weed control at 140 g/ha [1]: 85% | pest or weed control at 140 g/ha [2]: 98% | pest or weed control at 140 g/ha [3]: 95% | pest or weed control at 140 g/ha [5]: 95% | pest or weed control at 140 g/ha [6]: 100% | pest or weed control at 140 g/ha [7]: 100%

melting point: 192 to 193 °C
SMILES: COc1c(Br)ccc(-c2cc(N)c(Cl)c(C(=O)O)n2)c1Cl [Compound 121, 4-Amino-6-(4-bromo-2-chloro-3-methoxyphenyl)-3-chloropyridine-2-carboxylic acid]
pest or weed control at 140 g/ha [1]: 90% | pest or weed control at 140 g/ha [2]: 95% | pest or weed control at 140 g/ha [3]: 100% | pest or weed control at 140 g/ha [5]: 100% | pest or weed control at 140 g/ha [6]: 100% | pest or weed control at 140 g/ha [7]: 100%

SMILES: COc1c(Cl)cc(F)c(-c2cc(N)c(Cl)c(C(=O)O)n2)c1F [Compound 133, 4-Amino-3-chloro-6-(4-chloro-2,6-difluoro-3-methoxyphenyl)pyridine-2-carboxylic acid]
pest or weed control at 17.5 g/ha (Galium aparine; [8]): 100% | pest or weed control at 17.5 g/ha (Lamium purpureum; [9]): 99% | pest or weed control at 17.5 g/ha (Papaver rhoeas; [10]): 100% | pest or weed control at 17.5 g/ha (Veronica persica; [11]): 70% | pest or weed control at 17.5 g/ha (barley (Hordeum vulare); [12]): 0% | plant injury at 17.5 g/ha [4, 13]: 0%

SMILES: COC(=O)c1nc(-c2ccc(Cl)c(C(F)C(F)(F)F)c2F)cc(N)c1Cl (stereo not shown) [Compound 65, 4-Amino-3-chloro-6-[4-chloro-2-fluoro-3-(1,2,2,2-tetrafluoroethyl)phenyl)-pyridine-2-carboxylic acid, methyl ester]
pest or weed control at 140 g/ha [1]: 90% | pest or weed control at 140 g/ha [2]: 100% | pest or weed control at 140 g/ha [3]: 95% | pest or weed control at 35 g/ha (Galium aparine; [8]): 85% | pest or weed control at 35 g/ha (Lamium purpureum; [9]): 95% | pest or weed control at 35 g/ha (Papaver rhoeas; [10]): 90% | pest or weed control at 35 g/ha (Veronica persica; [11]): 40% | pest or weed control at 35 g/ha (barley (Hordeum vulare); [12]): 5% | plant injury at 35 g/ha [4, 13]: 15%

melting point: 116 to 118 °C
SMILES: COC(=O)c1nc(-c2ccc(Cl)c(C)c2F)cc(N)c1Cl [Compound 49, 4-Amino-3-chloro-6-(4-chloro-2-fluoro-3-methylphenyl)pyridine-2-carboxylic acid methyl ester]
pest or weed control at 140 g/ha [1]: 90% | pest or weed control at 140 g/ha [2]: 80% | pest or weed control at 140 g/ha [3]: 100% | pest or weed control at 140 g/ha [5]: 99% | pest or weed control at 140 g/ha [6]: 100% | pest or weed control at 140 g/ha [7]: 100%
